Assays:
[1] = test system: L-02 cells (normal human liver cells); test: in vitro; conditions: L-02, 48 hrs
Method: (§1) For testing the anti-proliferation activity of the compounds in human cell lines and calculation of IC50, cancer cells including HepG2, HeLa and Hep3B (4×10^5 cells/well) and normal L-02 cells (5×10^5 cells/well) were respectively seeded in 96-well plates in 100 μl of culture medium and incubated for about 12 hrs at 37° C. The cells were treated with two-fold serial dilutions of the drugs for 48 hrs. Medium was removed and 100 μl of culture medium containing 1 μM WST-1 (water soluble tetrazolium-1) were added to each well. The cells were incubated for 2 hrs, and absorbance at 405 nm (reference at 630 nm) was then measured. To construct the standard curve of the relationship between cell number and absorbance at OD405, serial dilutions of cells with known cell numbers were seeded and incubated for six hrs before being measured by the WST-1 assay. The cell viability was expressed as the ratio of the number of live cells treated with a candidate compound versus that of the DMSO-treated cells.
A pair of human cell lines, L-02 (normal liver cells) and HepG2 (a liver cancer cell line) was treated with 17beta-Deacetyltanghinin for 48 hrs. […] In FIG. 2B-H, quantification of viable cell numbers was carried out using WST-1 (Water-soluble tetrazolium-1) assay.
To further test 17beta-Deacetyltanghinin and to determine the IC50 values, besides L-02 and HepG2, Hep3B (another liver cancer cell line which is p53-negative), HeLa (cervical cancer cell line), HK1 and C666-1 (nasopharyngeal carcinoma) cells and a hTert-immortalized normal nasopharyngeal cell line (NP460) were treated by 17beta-Deacetyltanghinin for 48 hrs, and the relative cell vabilities were determined by WST-1 assay (FIG. 2B, C).

[2] = test system: normal cells (L-02, NP460); test: WST-1 anti-proliferation assay, normal cells (IC50); type: cell-based; conditions: Homo sapiens, 48 hrs treatment
Method: as §1, with “cells. […]” for “cells.”

[3] = molecular target: T1, hMcm2 and hMcm6 chromatin association (Homo sapiens, UniProt P49736+Q14566); test: Chromatin binding assay (pre-RC assembly) in HeLa cells; type: cell-based
T1 construct: endogenous in cells; host or cells: HeLa
T1 sequence (P49736 2-904 limits assumed): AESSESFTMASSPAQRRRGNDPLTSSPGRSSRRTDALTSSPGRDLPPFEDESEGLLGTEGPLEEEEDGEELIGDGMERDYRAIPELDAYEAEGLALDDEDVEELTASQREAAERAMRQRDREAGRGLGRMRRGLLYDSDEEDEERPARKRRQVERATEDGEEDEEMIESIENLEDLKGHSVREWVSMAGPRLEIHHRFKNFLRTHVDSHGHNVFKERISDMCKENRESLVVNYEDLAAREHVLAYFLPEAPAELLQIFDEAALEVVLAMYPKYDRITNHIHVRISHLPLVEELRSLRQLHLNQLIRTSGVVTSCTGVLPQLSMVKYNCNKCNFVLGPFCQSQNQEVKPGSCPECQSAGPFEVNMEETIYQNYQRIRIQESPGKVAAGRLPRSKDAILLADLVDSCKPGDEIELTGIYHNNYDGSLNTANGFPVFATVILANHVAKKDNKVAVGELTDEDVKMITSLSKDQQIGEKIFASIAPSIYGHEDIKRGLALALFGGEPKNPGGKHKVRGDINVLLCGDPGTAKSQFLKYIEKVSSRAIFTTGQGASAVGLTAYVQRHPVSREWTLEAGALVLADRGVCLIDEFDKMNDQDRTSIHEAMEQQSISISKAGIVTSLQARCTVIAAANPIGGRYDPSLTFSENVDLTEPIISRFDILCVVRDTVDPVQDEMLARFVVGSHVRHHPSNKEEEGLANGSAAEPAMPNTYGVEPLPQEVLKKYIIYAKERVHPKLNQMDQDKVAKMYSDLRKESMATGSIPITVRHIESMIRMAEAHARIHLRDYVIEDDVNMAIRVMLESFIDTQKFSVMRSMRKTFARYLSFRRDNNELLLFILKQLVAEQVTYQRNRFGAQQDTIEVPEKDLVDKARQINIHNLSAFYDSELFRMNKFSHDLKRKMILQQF
T1 sequence (Q14566 whole entry): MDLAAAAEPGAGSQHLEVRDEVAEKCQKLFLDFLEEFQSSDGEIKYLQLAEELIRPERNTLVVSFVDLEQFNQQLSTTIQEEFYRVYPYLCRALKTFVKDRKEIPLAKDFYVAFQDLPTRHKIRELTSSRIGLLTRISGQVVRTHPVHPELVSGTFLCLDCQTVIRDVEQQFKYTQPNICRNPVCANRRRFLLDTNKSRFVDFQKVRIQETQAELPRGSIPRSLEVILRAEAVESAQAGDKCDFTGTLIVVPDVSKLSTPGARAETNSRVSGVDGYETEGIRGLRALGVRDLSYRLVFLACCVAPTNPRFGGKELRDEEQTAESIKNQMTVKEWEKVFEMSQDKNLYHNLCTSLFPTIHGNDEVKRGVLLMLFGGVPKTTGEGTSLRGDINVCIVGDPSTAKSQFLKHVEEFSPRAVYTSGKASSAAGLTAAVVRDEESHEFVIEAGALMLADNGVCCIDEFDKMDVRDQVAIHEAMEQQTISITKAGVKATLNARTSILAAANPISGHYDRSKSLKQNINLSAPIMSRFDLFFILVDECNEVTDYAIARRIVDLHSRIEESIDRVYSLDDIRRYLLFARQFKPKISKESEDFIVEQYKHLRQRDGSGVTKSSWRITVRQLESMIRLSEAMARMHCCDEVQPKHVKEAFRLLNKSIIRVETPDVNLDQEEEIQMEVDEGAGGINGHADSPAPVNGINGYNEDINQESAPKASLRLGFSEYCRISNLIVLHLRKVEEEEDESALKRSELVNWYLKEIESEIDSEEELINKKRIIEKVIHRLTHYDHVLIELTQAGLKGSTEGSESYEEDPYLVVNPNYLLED
Method: Cells were harvested by trypsinization and washed twice with cold PBS. Extraction buffer (EB; ˜20 μl/10^6 cells) (100 mM KCl, 50 mM HEPES-KOH pH7.5, 2.5 mM MgCl2, 50 mM NaF, 5 mM Na4P2O7, 0.1 mM NaVO3, 0.5% Triton X-100, 1 mM PMSF, 2 μg/ml Pepstatin A, 20 μg/ml Leupeptin, 20 μg/ml Aprotinin, 0.2 mM Pefabloc, 2 mM Benzamidine HCl and 0.2 mg/ml Bacitracin) was added to resuspend and lyse the cells by pippetting. Cells were set on ice for 10 min, and flicked to mix every 2-3 min during the incubation. A volume of 30% ice-cold sucrose equal to EB containing protease inhibitors as in EB was added to the bottom of tube. The tube was spun at top speed in a microcentrifuge for 10 min to separate the chromatin and free proteins. The supernatant was transferred to a new tube and kept on ice. […]
As the component of pre-RC, the MCM complex plays a central role in the licensing of DNA replication. […] In FIGS. 5A and B, asynchronous Hela cells were treated with 17beta-Deacetyltanghinin for 24 hrs and analyzed by the chromatin binding assay (FIG. 5A). Untreated cells (Untreat.), cells treated with the solvent DMSO, and those treated with 0.2, 0.4 or 0.8∝g/ml 17beta-Deacetyltanghinin were analyzed for pre-RC components in the chromatin and supernatant fractions by immunoblotting (FIG. 5A). […] Each cell sample was also analyzed for cell cycle distribution by flow cytometry (FIG. 5B). […]

L-02 cells = test: Flow cytometry (cell cycle) in normal L-02 cells; type: cell-based, human; conditions: 24 hrs
Method: Both floating and attached cells were collected and washed once with PBS. Cells were fixed in 70% ethanol for 1 hr to overnight at −20° C., washed thoroughly with PBS, and then stained in 50 μg/ml RNase A, 0.1% Triton X-100, 0.1 mM EDTA (pH 7.4), and 50 μg/ml propidium iodide for 30 min at 4° C. Samples were analyzed with the FACSort instrument (Becton Dickinson).
In FIG. 8A, flow cytometry was performed to analyze the DNA contents in HepG2 and L-02 cells treated with 17beta-Deacetyltanghinin at various concentrations for 24 hrs. In FIG. 8B, Hela cells were treated with 17beta-Deacetyltanghinin for 24 hrs and labeled with Annexin V-Cy3 (Arm. Cy3) for 20 min. Mitoxantrone (MTX), a clinical anticancer drug that can induce apoptosis in cancer cells, was used as a positive control.

[4] = test system: L-02 (normal liver) cells and HepG2 (liver cancer) cells; test: Growth resumption after drug removal, WST-1 assay; type: cell-based, human; conditions: one day treatment, then three days in fresh medium
Method: Data in FIGS. 2 and 8A indicate that the anti-proliferation compounds of this invention can specifically kill cancer cells with little cytotoxicity towards normal cells. To test if normal and/or cancer cells could resume cell growth after removal of 17beta-Deacetyltanghinin, L-02 (normal liver) cells and HepG2 (liver cancer) cells were incubated with 17beta-Deacetyltanghinin or DMSO for one day, 17beta-Deacetyltanghinin or DMSO was then removed, and the cells were further incubated with fresh growth medium for three days. Viable cell numbers were monitored daily by WST-1 assay. In FIG. 9, L+DAT refers to L-02 cells treated with 17beta-Deacetyltanghinin; L+D represents L-02 cells treated with DMSO; H+DAT refers to HepG2 cells treated with 17beta-Deacetyltanghinin; and H+D represents HepG2 cells treated with DMSO before being released into fresh medium.

[5] = test system: HepG2 cells (hepatocellular carcinoma); conditions: HepG2, 48 hrs

COC1C(O)[C@H](O[C@H]2CC[C@]3(C)C4CC[C@]5(C)[C@@H](C6=CC(=O)OC6)CC[C@]5(O)[C@@]45O[C@H]5C[C@@H]3C2)OC(C)[C@@H]1O (stereo partly drawn) [17beta-Deacetyltanghinin, 3β-O-(3-O-methyl-6-deoxy-α-L-glucopyranosyl)-7β,8β-epoxy-14β-hydroxy-card-20(22)-enolide]
activity towards normal cells, direct microscopy of cell density and morphology [1]: much lower activity | IC50 [2]: > 4 µg/mL | MCM loading onto chromatin ([3]; HeLa cells released from nocodazole M phase arrest): largely prevented | hMcm2 and hMcm6 in chromatin fractions ([3]; asynchronous HeLa cells, 24 hrs, 0.2, 0.4 or 0.8 ∝g/ml): significantly reduced | cell cycle effect in normal cells (L-02 cells): mostly arrested in G1 phase | growth resumption after removal of compound [4]: normal cells, but not cancer cells, resumed growth | inhibition of proliferation, direct microscopy of cell density and morphology [5]: efficiently inhibit the proliferation

Source: US11648258B2, “Method and compounds for inhibiting the MCM complex and their application in cancer treatment” (priority 2012, dated 2023)
